# Laboratory results from PubChem BioAssay (NCI).
#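 Grown in 96-well plates, cells were treated for 48 hours with each compound at five concentrations. Insufficient inhibition: endpoint recorded as highest concentration tested. At the TGI there is no net growth.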
# Legend:
# Experiment in all cases: DTP human tumour cell line panel, 48 h
# [1] = tested on: NCI-H226 lung
# [2] = tested on: SN12C renal
# [3] = tested on: OVCAR-4 ovarian
# [4] = tested on: SK-MEL-5 melanoma
# [5] = tested on: ACHN renal
# [6] = tested on: DLD-1 colon
# [7] = tested on: EKVX NSCLC
# [8] = tested on: M14 melanoma
# [9] = tested on: KM20L2 colon
# [10] = tested on: CCRF-CEM leukemia
# [11] = tested on: UO-31 renal
# [12] = tested on: MALME-3M melanoma
# [13] = tested on: HCT-116 colon
# [14] = tested on: CAKI-1 renal
# [15] = tested on: K-562 leukemia
# [16] = tested on: SK-MEL-2 melanoma
# [17] = tested on: KM12 colon
# [18] = tested on: TK-10 renal
# [19] = tested on: SW-620 colon
# [20] = tested on: HT29 colon
# [21] = tested on: HL-60(TB) leukemia
# [22] = tested on: M19-MEL melanoma
# [23] = tested on: IGROV1 ovarian
# [24] = tested on: OVCAR-3 ovarian
# [25] = tested on: NCI-H522 lung
# [26] = tested on: LXFL 529 NSCLC
# [27] = tested on: OVCAR-5 ovarian
# [28] = tested on: OVCAR-8 ovarian
# [29] = tested on: UACC-257 melanoma
# [30] = tested on: HOP-18 NSCLC
# [31] = tested on: MOLT-4 leukemia
# [32] = tested on: DMS 273 small cell lung
# [33] = tested on: 786-0 renal
# [34] = tested on: HCC-2998 colon
# [35] = tested on: A549 NSCLC
# [36] = tested on: U251 CNS
# [37] = tested on: SK-OV-3 ovarian
# [38] = tested on: SF-539 CNS
# [39] = tested on: NCI-H23 lung
# [40] = tested on: RXF 393 renal
# [41] = tested on: DMS 114 small cell lung
# [42] = tested on: HOP-92 NSCLC
# [43] = tested on: SNB-19 CNS
# [44] = tested on: SK-MEL-28 melanoma
# [45] = tested on: SNB-75 CNS
# [46] = tested on: XF 498 CNS
# [47] = tested on: SF-268 CNS
# [48] = tested on: HCT-15 colon
# [49] = tested on: LOX IMVI melanoma
# [50] = tested on: NCI-H460 lung
# [51] = tested on: A498 renal
# [52] = tested on: HOP-62 NSCLC
# [53] = tested on: UACC-62 melanoma
# [54] = tested on: RPMI-8226 leukemia
# [55] = tested on: COLO 205 colon
# [56] = tested on: SNB-78 CNS
# [57] = tested on: SR leukemia
# [58] = tested on: SF-295 CNS
structure (smiles),measurement,setting,value
COc1cc2ccc3c4cc(OC)c(OC)cc4c[n+](C)c3c2cc1O,TGI,[1],> 100 µM
same,TGI,[2],43 µM
same,TGI,[3],> 100 µM
same,TGI,[4],> 100 µM
same,TGI,[5],> 76.6 µM
same,TGI,[6],> 100 µM
same,TGI,[7],> 100 µM
same,TGI,[8],> 100 µM
same,TGI,[9],> 100 µM
same,TGI,[10],> 100 µM
same,TGI,[11],> 100 µM
same,TGI,[12],> 100 µM
same,TGI,[13],> 100 µM
same,TGI,[14],> 100 µM
same,TGI,[15],> 100 µM
same,TGI,[16],> 100 µM
same,TGI,[17],> 100 µM
same,TGI,[18],> 100 µM
same,TGI,[19],> 100 µM
same,TGI,[20],> 100 µM
same,TGI,[21],> 100 µM
same,TGI,[22],> 100 µM
same,TGI,[23],> 100 µM
same,TGI,[24],> 100 µM
same,TGI,[25],78.7 µM
same,TGI,[26],> 100 µM
same,TGI,[27],> 100 µM
same,TGI,[28],> 100 µM
same,TGI,[29],> 100 µM
same,TGI,[30],> 100 µM
same,TGI,[31],> 100 µM
same,TGI,[32],> 100 µM
same,TGI,[33],> 100 µM
same,TGI,[34],> 100 µM
same,TGI,[35],> 100 µM
same,TGI,[36],> 87.9 µM
same,TGI,[37],> 100 µM
same,TGI,[38],> 100 µM
same,TGI,[39],> 100 µM
same,TGI,[40],> 100 µM
same,TGI,[41],> 82.9 µM
same,TGI,[42],> 100 µM
same,TGI,[43],> 100 µM
same,TGI,[44],> 100 µM
same,TGI,[45],> 100 µM
same,TGI,[46],> 88.1 µM
same,TGI,[47],7.23 µM
same,TGI,[48],> 100 µM
same,TGI,[49],> 100 µM
same,TGI,[50],> 86.7 µM
same,TGI,[51],> 48.1 µM
same,TGI,[52],> 100 µM
same,TGI,[53],> 100 µM
same,TGI,[54],> 100 µM
same,TGI,[55],> 100 µM
same,TGI,[56],> 100 µM
CCOC(=O)C1C(c2ccc(Cl)cc2Cl)NC(c2ccc(C)cc2)C(C(=O)OC)S1(=O)=O (configuration not stated),TGI,[1],> 100 µM
same,TGI,[3],> 100 µM
same,TGI,[4],> 100 µM
same,TGI,[5],> 100 µM
same,TGI,[6],> 100 µM
same,TGI,[7],> 100 µM
same,TGI,[8],> 100 µM
same,TGI,[10],> 100 µM
same,TGI,[11],> 100 µM
same,TGI,[12],> 100 µM
same,TGI,[14],> 100 µM
same,TGI,[15],> 100 µM
same,TGI,[16],> 100 µM
same,TGI,[17],> 100 µM
same,TGI,[57],> 100 µM
same,TGI,[18],> 100 µM
same,TGI,[19],> 100 µM
same,TGI,[20],> 100 µM
same,TGI,[21],> 100 µM
same,TGI,[22],> 100 µM
same,TGI,[23],> 100 µM
same,TGI,[24],> 100 µM
same,TGI,[25],> 100 µM
same,TGI,[26],> 100 µM
same,TGI,[27],> 100 µM
same,TGI,[28],> 100 µM
same,TGI,[29],> 100 µM
same,TGI,[31],> 100 µM
same,TGI,[32],> 100 µM
same,TGI,[33],> 100 µM
same,TGI,[34],> 100 µM
same,TGI,[35],> 100 µM
same,TGI,[58],> 100 µM
same,TGI,[36],> 100 µM
same,TGI,[37],> 100 µM
same,TGI,[38],> 100 µM
same,TGI,[39],> 100 µM
same,TGI,[40],> 100 µM
same,TGI,[42],> 100 µM
same,TGI,[43],> 100 µM
same,TGI,[44],> 100 µM
same,TGI,[45],> 100 µM
same,TGI,[46],> 100 µM
same,TGI,[47],> 100 µM
same,TGI,[48],> 100 µM
same,TGI,[49],> 100 µM
same,TGI,[50],> 100 µM
same,TGI,[51],> 100 µM
same,TGI,[52],> 100 µM
same,TGI,[53],> 100 µM
same,TGI,[54],> 100 µM
same,TGI,[55],> 100 µM
same,TGI,[56],> 100 µM
C[C@]12Cc3cn[nH]c3C(=O)C1CC[C@@H]1C2CC[C@@]2(C)C1CC[C@@H]2O (some centres not stated),TGI,[1],> 100 µM
same,TGI,[2],> 100 µM
same,TGI,[3],> 100 µM
same,TGI,[4],> 100 µM
same,TGI,[5],> 100 µM
same,TGI,[7],> 100 µM
same,TGI,[8],> 100 µM
same,TGI,[9],> 100 µM
same,TGI,[10],> 100 µM
same,TGI,[11],> 100 µM
same,TGI,[12],> 100 µM
same,TGI,[13],> 100 µM
same,TGI,[14],> 100 µM
same,TGI,[15],> 100 µM
same,TGI,[16],> 100 µM
same,TGI,[17],> 100 µM
same,TGI,[18],> 100 µM
same,TGI,[19],> 100 µM
same,TGI,[20],> 100 µM
same,TGI,[21],> 100 µM
same,TGI,[23],> 100 µM
same,TGI,[24],> 100 µM
same,TGI,[25],> 100 µM
same,TGI,[26],> 100 µM
same,TGI,[27],> 100 µM
same,TGI,[28],> 100 µM
same,TGI,[29],> 100 µM
same,TGI,[30],> 100 µM
same,TGI,[31],> 100 µM
same,TGI,[32],> 100 µM
same,TGI,[33],> 100 µM
same,TGI,[35],> 100 µM
same,TGI,[58],> 100 µM
same,TGI,[36],> 100 µM
same,TGI,[37],> 100 µM
same,TGI,[38],> 100 µM
same,TGI,[39],> 100 µM
same,TGI,[40],> 100 µM
same,TGI,[41],> 100 µM
same,TGI,[42],> 100 µM
same,TGI,[43],> 100 µM
same,TGI,[44],> 100 µM
same,TGI,[45],> 100 µM
same,TGI,[46],> 100 µM
same,TGI,[47],> 100 µM
same,TGI,[48],> 100 µM
same,TGI,[49],> 100 µM
same,TGI,[50],> 100 µM
same,TGI,[51],> 100 µM
same,TGI,[52],> 100 µM
same,TGI,[53],> 100 µM
same,TGI,[54],> 100 µM
same,TGI,[55],> 100 µM
same,TGI,[56],> 100 µM
O=C(NC12CC3CCC1CC(C3)C2)[C@@H]1CCCN1C(=O)OCc1ccccc1 (some centres not stated),TGI,[1],> 100 µM
same,TGI,[2],> 100 µM
same,TGI,[5],> 100 µM
same,TGI,[6],> 100 µM
same,TGI,[7],> 100 µM
same,TGI,[8],> 100 µM
same,TGI,[9],> 100 µM
same,TGI,[10],> 100 µM
same,TGI,[11],> 100 µM
same,TGI,[12],> 100 µM
same,TGI,[13],> 100 µM
same,TGI,[15],> 100 µM
same,TGI,[16],> 100 µM
same,TGI,[17],> 100 µM
same,TGI,[57],> 100 µM
same,TGI,[18],> 100 µM
same,TGI,[19],> 100 µM
same,TGI,[20],> 100 µM
same,TGI,[21],73.3 µM
same,TGI,[22],> 100 µM
same,TGI,[23],> 100 µM
same,TGI,[24],> 100 µM
same,TGI,[25],> 100 µM
same,TGI,[26],> 100 µM
same,TGI,[27],> 100 µM
same,TGI,[28],> 100 µM
same,TGI,[29],> 100 µM
same,TGI,[30],> 100 µM
same,TGI,[31],> 100 µM
same,TGI,[32],> 100 µM
same,TGI,[33],> 100 µM
same,TGI,[34],> 100 µM
same,TGI,[35],> 100 µM
same,TGI,[58],> 100 µM
same,TGI,[36],> 100 µM
same,TGI,[37],> 100 µM
same,TGI,[38],> 100 µM
same,TGI,[39],> 100 µM
same,TGI,[40],54.6 µM
same,TGI,[41],> 100 µM
same,TGI,[42],71.5 µM
same,TGI,[43],> 100 µM
same,TGI,[44],> 100 µM
same,TGI,[45],97.2 µM
same,TGI,[46],> 100 µM
same,TGI,[47],> 100 µM
same,TGI,[48],> 100 µM
same,TGI,[49],> 100 µM
same,TGI,[51],> 100 µM
same,TGI,[52],> 100 µM
same,TGI,[53],> 100 µM
same,TGI,[54],> 100 µM
same,TGI,[55],> 100 µM
same,TGI,[56],> 100 µM
